“Also recorded” adds a separate entry of the source.
Legend:
aged mice [1] = experiment: Chemokine and cytokine multiplex assay of plasma and hippocampus of treated mice; type: in vivo, mouse; conditions: aged (20-22 mo) mice, 2.5 mg/kg/d by gavage, 6 weeks
Procedure: PGE2, Butaprost, PF04418948 and Iloprost were purchased from Millipore-Sigma (Burlington, Mass., USA). ONO-AE248 and ONO-AE1-329 were gifts from Ono Pharmaceuticals (Osaka, Japan). Compound 52 (Charnwood Molecular Ltd, Loughborough, UK) and PF04418948 (Millipore-Sigma, Burlington, Mass., USA) were resuspended in 40% PEG (Sigma-Aldrich) and 60% of a 30% Kolliphor HS15 solution (Sigma-Aldrich), and administered orally at 10 mg/kg/d and 2.5 mg/kg/d, respectively. U-^13C-Glucose, U-^13C-Lactate, U-^13C-Glutamine, and U-^13C-Pyruvate were purchased from Cambridge Isotopes (Tewksbury, Mass., USA). HUSH-29 plasmids containing shRNAs to human GYS1 were purchased from Origene Technologies (Rockville, Md., USA). Human monocyte derived macrophages were incubated with 1640 Media with GlutaMAX+HEPES without sodium pyruvate (ThermoFisher, catolog No. 72400146). […]
Hippocampal lysates or mouse plasma were stored at −80° C. and cytokine analysis was carried out at the Human Immune Monitoring Core (Stanford University) or Eve Technologies (Calgary, Alberta, Canada) using Luminex mouse 39-plex kits and Human 71-plex kits. Plates were read using a Luminex LabMap200 instrument or a MSD Chemiluminescence instrument with a lower bound of 100 beads per sample per measured cytokine. […] Mean fluorescence intensity (MFI) was averaged over duplicate wells for each cytokine per sample on each plate. […]

aged mice [2] = experiment: Electrophysiology: hippocampal CA1 long-term potentiation (LTP); type: in vivo, mouse; conditions: aged (20-22 mo) mice, 2.5 mg/kg/d, 6 weeks; 2.5 mg/kg/day
Procedure: To measure the cellular mechanism of learning and memory, a modified protocol previously described (Latif-Hernandez et al., Frontiers in cellular neuroscience 10, 252, (2016), incorporated herein by reference) was used. Mice were euthanized by cervical dislocation, and hippocampus (HC) was rapidly dissected out into ice-cold (4° C.) artificial cerebrospinal fluid (ACSF), saturated with carbogen (95% O2/5% CO2). ACSF consisted of (in mM): 124 NaCl, 4.9 KCl, 24.6 NaHCO3, 1.20 KH2PO4, 2.0 CaCl2, 2.0 MgSO4, 10.0 glucose, pH 7.4. […] Slices were carefully positioned on a R6501A multi-electrode array (Alpha MED Scientific Inc., Osaka, Japan) with electrodes arrayed in an 8×2 matrix with interpolar distance of 150 μm; each matrix measured 50 μm×50 μm. After 30 min incubation, the field excitatory postsynaptic potentials (fEPSPs) in CA1 were recorded by stimulating downstream electrodes in the CA1 and CA3 regions along the Schaffer collateral pathway. […] The time course of the fEPSP was calculated as the descending slope function for all experiments. […] The mean baseline fEPSP value was calculated and percentage change from baseline after the TBS was analyzed for LTP.

[3] = tested on: human monocyte-derived macrophages (human MDMs); experiment: Real-time oxygen consumption rate (OCR) and ECAR (Seahorse) in human MDMs; type: cell-based; conditions: human MDMs, dose response, 20 h
Procedure: Cells were plated at 1.8×10^6 cells per well in a Seahorse XF24 Cell Culture Microplate (Agilent). Cells were then treated with indicated inhibitors or agonists in each experiment for 20 h. Cells were washed twice with Agilent Seahorse XF Media (Agilent) supplemented with 1 mM pyruvate, 2 mM L-glutamine, and 10 mM D-glucose; a final volume of 525 μl was placed in each well. Cells were then incubated in a 0% CO2 chamber at 37° C. for 1 h before being placed into a Seahorse XFe24 Analyzer (Agilent). For OCR and ECAR mitostress test experiments, cells were treated with 1 μM oligomycin, 2 μM carbonyl cyanide p-trifluoromethoxyphenylhydrazone (FCCP), and 0.5 μM rotenone/antimycin (indicated by three black arrows in each seahorse trace). For mitoFlex Fuel test experiments, cells were treated with UK5099 (200 μM) and BPTES (200 μM)/Etomoxir (80 μM). A total of three OCR and pH measurements were taken after each compound was administered. All Seahorse experiments were repeated at least three times unless otherwise indicated. All OCR and ECAR data were normalized to cell number per well using CyQUANT (ThermoFisher Scientific, Waltham, Mass., USA).
Peripheral blood mononuclear cells from de-identified healthy donors (young<35 years old, aged>65 years old) were obtained from the Stanford Blood Center and transferred to 50 ml conical tubes. Samples were diluted with 20 ml PBS and layered onto 10 ml of Ficoll-Paque (GE Healthcare) using a Pasteur pipette. Tubes were centrifuged at 1,500 r.p.m. for 25 min without brake at 20° C. The mononuclear cell layer was transferred to a new 50 ml conical tube, resuspended in 50 ml 1×PBS and centrifuged at 1500 r.p.m. for 10 min, repeated twice. After centrifugation, monocytes were isolated using a Monocyte Isolation Kit, human (MACS; Miltenyi Biotech). Cells were then plated 10×10^6 per 10-cm petri dish and differentiated for 7 days in Roswell Park Memorial Institute (RPMI) media supplemented with 10% FBS, 1% penicillin-streptomycin, and 50 ng ml^−1 M-CSF (Peprotech).

## COc1ccc2cc(OCC3(C(=O)O)CN(C(=O)c4ccc(F)cc4)C3)ccc2c1 [PF-04418948]
Aged mice [1]
  pro-inflammatory factors in blood and hippocampus: reduced levels of pro-inflammatory factors not only in blood but also in hippocampus
Aged mice [2]
  LTP in CA1 hippocampal region of aged mice: restored hippocampal memory function as well as LTP to youthful levels; also recorded: rescued
[3]
  ECAR (extracellular acidification rate, glycolysis): increased
  basal OCR (oxygen consumption): increased
